In patent US20060252733A1, “Betulin, betulin derivatives, betulinic acid and betulinic acid derivatives as novel therapeutics in the treatment of disease of lipid and/or glucose metabolism” (Novelix Pharmaceuticals, Inc., priority 2005, published 2006):

Assays:
[1] = system: hepatic low density lipoprotein (LDL) receptors; settings: animals; by increasing the expression of hepatic LDL receptors; cited from earlier work
[2] = system: human melanoma cell line (518A2); assay: Cell survival (cell counts) after 3 days of treatment; settings: 3 days, vs untreated controls (=100%)
Method: Induction of cell death was evaluated in a human melanoma cell line (518A2) in the presence of simvastatin and NVX-207 alone or in combination. […] After 3 days of treatment, cell numbers were counted. Percentages of survival given are cell numbers compared to untreated controls (=100%). Experiments were repeated three times. Mean values are given.

SMILES | plasma cholesterol levels [1] | Survival (%) ([2]; Simvastatin 0.5 μmol) | Survival (%) ([2]; Simvastatin 1.0 μmol) | Survival (%) ([2]; Simvastatin 2.0 μmol) | Survival (%) ([2]; Simvastatin 4.0 μmol)
C=CC[C@@H]1[C@H](O)CC[C@@]2(C)[C@H]1CC[C@@H]1[C@@H]2CC[C@]2(C)[C@@H]([C@H](C)CCCC(C)C)CC[C@@H]12 [LY295427] | reduce plasma cholesterol levels | – | – | – | –
CCC(C)(C)C(=O)O[C@H]1C[C@@H](C)C=C2C=C[C@H](C)[C@H](CC[C@@H]3C[C@@H](O)CC(=O)O3)[C@H]21 [Simvastatin, reference compound] | – | 96% | 40% | 12% | 3%
